Reference: US11123337B2, “4-methylsulfonyl-substituted piperidine urea compounds” (MYOKARDIA, INC., priority 2015, dated 2021)

Key:
[1] = target: bovine cardiac myosin (Bos taurus, UniProt Q9BE39); assay: Myosin activation assay (PK/LDH-coupled ATPase, bovine cardiac myofibrils); type: biochemical; conditions: AC20 = concentration at which total response is increased by twenty percent
How it was run: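 Values are the concentrations raising the ATPase rate by 20% or 50% over DMSO, from 10-point dose responses fitted with four parameters. Rate is NADH loss at 340 nm via PK/LDH coupling, read 15 min at room temperature, in pH 6.8 PIPES with 50 μM ATP. Bovine cardiac myofibrils were held at pCa ~6 or pCa 10.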

[2] = test system: adult rat ventricular myocytes; assay: Cardiomyocyte contractility assay (IonOptix edge detection, fractional shortening); type: cell-based; conditions: 1 Hz pacing; for Activity at 1.0 uM (fractional shortening activation over basal): 1.0 uM compound
Procedure: Contractility of adult rat ventricular myocytes is determined by edge detection with an IonOptix contractility system. Aliquots of myocytes in Tyrode buffer (137 mM NaCl, 3.7 mM KCl, 0.5 mM MgCl2, 1.5 mM CaCl2), 4 mM HEPES, 11 mM glucose) are placed in a perfusion chamber (Series 20 RC-27NE; Warner Instruments), allowed to adhere to the coverslip, and then perfused with 37° C. Tyrode buffer. Myocytes are filed stimulated at 1 Hz and 10V. Only myocytes with clear striations, quiescent prior to pacing, with a cell length of 120-180 microns, a basal fractional shortening equal to 3-8% of the cell length, and a contraction velocity greater than 100 microns per second are used for contractility experiments. To determine the response to compounds, myocytes are first perfused for 60 seconds with Tyrodes buffer followed by 5 minutes of compound and a 140 second washout with Tyrodes buffer. Data is continuously recorded using IonOptix software. Contractility data is analyzed using Ionwizard software (IonOptix). For each cell, 10-20 contractility transients were averaged and compared under basal (no compound) and compound-treated conditions. Compound activity is measured by effects on fractional shortening (FS), where fractional shortening is the ratio of the peak length of the cell at contraction divided by the basal cell length normalized to 100% for an untreated cell.

Chain of bovine cardiac myosin (Q9BE39 whole entry): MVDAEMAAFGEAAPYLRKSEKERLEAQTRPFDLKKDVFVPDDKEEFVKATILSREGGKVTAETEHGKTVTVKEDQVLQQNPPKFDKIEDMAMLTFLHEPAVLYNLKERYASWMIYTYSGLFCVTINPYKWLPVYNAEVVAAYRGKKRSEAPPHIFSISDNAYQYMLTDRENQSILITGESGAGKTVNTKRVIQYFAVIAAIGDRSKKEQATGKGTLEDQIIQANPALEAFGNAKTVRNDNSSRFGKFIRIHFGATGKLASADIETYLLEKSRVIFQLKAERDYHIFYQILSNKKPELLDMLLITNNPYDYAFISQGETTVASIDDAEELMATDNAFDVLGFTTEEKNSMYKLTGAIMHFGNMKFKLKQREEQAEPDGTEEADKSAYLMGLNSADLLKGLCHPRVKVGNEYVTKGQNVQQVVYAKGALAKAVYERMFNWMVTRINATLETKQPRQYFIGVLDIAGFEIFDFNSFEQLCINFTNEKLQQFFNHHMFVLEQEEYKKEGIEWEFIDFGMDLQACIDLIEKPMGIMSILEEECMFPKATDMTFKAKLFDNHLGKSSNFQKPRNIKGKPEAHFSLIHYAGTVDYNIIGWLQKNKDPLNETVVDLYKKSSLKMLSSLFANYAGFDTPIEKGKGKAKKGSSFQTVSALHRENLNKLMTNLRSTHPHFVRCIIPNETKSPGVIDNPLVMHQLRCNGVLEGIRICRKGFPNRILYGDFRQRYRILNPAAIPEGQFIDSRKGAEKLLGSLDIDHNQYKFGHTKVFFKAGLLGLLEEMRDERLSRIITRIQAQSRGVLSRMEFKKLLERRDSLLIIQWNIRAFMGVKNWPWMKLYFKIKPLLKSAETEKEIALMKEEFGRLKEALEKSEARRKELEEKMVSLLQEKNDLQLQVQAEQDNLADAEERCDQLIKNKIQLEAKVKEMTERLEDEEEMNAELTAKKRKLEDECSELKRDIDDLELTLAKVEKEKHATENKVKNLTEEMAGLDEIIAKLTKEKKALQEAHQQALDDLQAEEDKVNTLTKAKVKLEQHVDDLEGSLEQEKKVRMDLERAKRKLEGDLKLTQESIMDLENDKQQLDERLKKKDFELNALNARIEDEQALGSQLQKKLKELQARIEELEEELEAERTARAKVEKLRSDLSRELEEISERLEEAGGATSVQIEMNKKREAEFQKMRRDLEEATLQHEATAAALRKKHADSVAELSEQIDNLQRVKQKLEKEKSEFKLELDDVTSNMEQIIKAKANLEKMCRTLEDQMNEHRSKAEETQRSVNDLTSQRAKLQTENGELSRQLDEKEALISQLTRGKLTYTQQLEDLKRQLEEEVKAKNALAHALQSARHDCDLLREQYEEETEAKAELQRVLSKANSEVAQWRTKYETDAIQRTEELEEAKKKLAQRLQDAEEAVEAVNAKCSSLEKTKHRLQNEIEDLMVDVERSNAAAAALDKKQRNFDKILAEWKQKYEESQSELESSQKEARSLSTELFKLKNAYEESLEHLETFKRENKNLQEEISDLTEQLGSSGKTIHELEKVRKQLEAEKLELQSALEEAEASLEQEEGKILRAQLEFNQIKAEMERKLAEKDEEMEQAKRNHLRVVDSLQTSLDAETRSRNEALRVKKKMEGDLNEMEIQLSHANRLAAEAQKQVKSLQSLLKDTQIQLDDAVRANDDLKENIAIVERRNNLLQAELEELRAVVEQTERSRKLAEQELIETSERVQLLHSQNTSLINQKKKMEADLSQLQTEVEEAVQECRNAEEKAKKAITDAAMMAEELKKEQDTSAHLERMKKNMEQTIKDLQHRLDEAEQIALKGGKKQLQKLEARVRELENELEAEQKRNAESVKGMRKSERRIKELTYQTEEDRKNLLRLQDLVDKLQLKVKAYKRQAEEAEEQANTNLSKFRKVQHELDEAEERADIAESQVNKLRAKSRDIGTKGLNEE
Chain of bovine cardiac myosin (P85100 whole entry partner): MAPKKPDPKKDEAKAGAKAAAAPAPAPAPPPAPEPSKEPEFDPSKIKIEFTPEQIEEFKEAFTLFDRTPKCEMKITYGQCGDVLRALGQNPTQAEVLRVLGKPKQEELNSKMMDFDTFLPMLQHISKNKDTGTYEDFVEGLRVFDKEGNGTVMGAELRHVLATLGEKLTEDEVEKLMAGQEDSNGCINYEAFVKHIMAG
Chain of bovine cardiac myosin (Q3SZE5 whole entry partner): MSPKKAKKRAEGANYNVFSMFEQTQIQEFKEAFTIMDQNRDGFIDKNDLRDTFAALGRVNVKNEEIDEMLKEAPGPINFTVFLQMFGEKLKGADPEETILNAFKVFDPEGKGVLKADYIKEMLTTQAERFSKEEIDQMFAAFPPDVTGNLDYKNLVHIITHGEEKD

Compound	Myosin Activation (AC20) [1]	Activity at 1.0 uM (fractional shortening activation over basal) [2]	Activity at 10 uM (fractional shortening activation over basal) ([2]; 10 uM compound)
CC(C)(C1CCN(C(=O)Nc2ccnnc2)CC1)S(=O)(=O)c1cccc(F)c1 [Compound 7, 4-(2-((3-fluorophenyl)sulfonyl)propan-2-yl)-N-(pyridazin-4-yl)piperidine-1-carboxamide]	+++ (+++ represents myosin activation value AC20 < 2 μM)	++ (++ represents fractional shorting activation values from 20% to 50% over basal)	++ (++ represents fractional shorting activation values from 20% to 50% over basal)
CC(C)(C1CCN(C(=O)Nc2ccncc2)CC1)S(=O)(=O)c1cccc(F)c1 [Compound 32, 4-(2-((3-fluorophenyl)sulfonyl)propan-2-yl)-N-(pyridin-4-yl)piperidine-1-carboxamide]	+++ (+++ represents myosin activation value AC20 < 2 μM)	++ (++ represents fractional shorting activation values from 20% to 50% over basal)	–
